{"source": "ChEMBL document CHEMBL4507273", "about": "(2021)", "key": {"[1]": {"molecular_target": "Serine/threonine-protein kinase DCLK2 (Homo sapiens) (UniProt Q8N568)", "sequence (Q8N568 whole entry)": "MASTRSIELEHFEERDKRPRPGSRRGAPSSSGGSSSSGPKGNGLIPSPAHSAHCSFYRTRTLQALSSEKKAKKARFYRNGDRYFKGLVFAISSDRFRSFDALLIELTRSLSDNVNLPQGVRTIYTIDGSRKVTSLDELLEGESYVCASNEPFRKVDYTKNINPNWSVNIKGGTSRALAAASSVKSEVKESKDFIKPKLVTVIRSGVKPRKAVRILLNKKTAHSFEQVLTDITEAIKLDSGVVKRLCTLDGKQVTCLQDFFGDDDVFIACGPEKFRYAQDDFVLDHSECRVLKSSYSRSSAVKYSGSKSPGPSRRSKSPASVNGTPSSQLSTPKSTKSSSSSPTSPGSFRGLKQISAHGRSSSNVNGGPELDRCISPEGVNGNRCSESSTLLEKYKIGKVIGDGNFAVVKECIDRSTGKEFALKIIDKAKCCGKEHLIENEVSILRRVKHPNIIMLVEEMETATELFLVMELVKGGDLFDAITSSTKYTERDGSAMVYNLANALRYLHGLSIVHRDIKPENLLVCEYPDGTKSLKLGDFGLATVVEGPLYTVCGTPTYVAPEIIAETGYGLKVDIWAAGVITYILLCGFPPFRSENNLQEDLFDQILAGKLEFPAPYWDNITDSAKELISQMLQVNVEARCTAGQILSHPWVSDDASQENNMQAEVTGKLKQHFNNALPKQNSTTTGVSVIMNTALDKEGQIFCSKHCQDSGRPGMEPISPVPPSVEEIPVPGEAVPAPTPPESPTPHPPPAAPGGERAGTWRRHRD", "conditions": "Compound concentration 1000.0 nM"}, "[2]": {"molecular_target": "Wee1-like protein kinase 2 (Homo sapiens) (UniProt P0C1S8)", "conditions": "Compound concentration 1000.0 nM"}, "[3]": {"molecular_target": "Casein kinase I isoform gamma-3 (Homo sapiens) (UniProt Q9Y6M4)", "sequence (Q9Y6M4 whole entry, looked up, canonical isoform)": "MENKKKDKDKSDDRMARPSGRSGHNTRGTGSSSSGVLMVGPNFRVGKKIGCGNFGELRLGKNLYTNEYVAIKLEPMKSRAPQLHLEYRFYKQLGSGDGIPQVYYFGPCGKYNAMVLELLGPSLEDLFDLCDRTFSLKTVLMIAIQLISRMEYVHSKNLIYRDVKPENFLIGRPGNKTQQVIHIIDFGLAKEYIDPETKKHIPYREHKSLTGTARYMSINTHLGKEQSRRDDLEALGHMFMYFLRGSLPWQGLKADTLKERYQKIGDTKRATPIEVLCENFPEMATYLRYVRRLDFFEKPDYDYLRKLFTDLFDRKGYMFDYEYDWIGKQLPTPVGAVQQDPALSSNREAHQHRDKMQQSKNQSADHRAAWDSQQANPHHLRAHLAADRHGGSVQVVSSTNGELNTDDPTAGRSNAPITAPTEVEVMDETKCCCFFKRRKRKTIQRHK", "conditions": "Compound concentration 1000.0 nM"}, "[4]": {"molecular_target": "T1, Muscarinic acetylcholine receptor M1 (Homo sapiens, UniProt P11229)", "T1 sequence (P11229 whole entry)": "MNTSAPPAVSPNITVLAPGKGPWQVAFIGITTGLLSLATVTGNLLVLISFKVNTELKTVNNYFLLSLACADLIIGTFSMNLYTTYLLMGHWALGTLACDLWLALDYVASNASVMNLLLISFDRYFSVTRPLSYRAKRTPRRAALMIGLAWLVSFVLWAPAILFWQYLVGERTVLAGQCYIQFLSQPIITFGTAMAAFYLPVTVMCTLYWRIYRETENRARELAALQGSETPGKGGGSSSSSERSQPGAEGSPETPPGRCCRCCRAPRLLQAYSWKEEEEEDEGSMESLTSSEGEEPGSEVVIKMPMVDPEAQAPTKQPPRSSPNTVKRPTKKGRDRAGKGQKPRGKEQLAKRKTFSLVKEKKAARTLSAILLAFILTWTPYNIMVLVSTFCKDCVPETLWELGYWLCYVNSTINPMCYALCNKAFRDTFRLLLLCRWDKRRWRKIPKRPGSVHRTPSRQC", "assay": "GPCRScan assay: inhibition of M1", "set-up": "radioligand conc. used [nm] 0.3 – 1.2, parental cells stable CHO", "conditions": "for pKi: read-out: Ki; for Ki: read-out: pKi (converted)"}, "[5]": {"molecular_target": "Serine/threonine-protein kinase Nek6 (Homo sapiens) (UniProt Q9HC98)", "sequence (Q9HC98 whole entry)": "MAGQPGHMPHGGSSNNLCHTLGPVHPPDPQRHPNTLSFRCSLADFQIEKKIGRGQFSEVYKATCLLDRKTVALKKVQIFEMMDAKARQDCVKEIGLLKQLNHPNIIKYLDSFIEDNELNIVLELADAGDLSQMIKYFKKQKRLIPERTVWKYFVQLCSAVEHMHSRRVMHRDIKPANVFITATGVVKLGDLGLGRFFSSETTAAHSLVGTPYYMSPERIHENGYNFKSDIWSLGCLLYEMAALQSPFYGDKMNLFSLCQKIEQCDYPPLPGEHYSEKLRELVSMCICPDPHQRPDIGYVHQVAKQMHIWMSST", "conditions": "Compound concentration 1000.0 nM"}, "[6]": {"molecular_target": "5-hydroxytryptamine receptor 2B (Homo sapiens, UniProt P41595)", "sequence (P41595 whole entry)": "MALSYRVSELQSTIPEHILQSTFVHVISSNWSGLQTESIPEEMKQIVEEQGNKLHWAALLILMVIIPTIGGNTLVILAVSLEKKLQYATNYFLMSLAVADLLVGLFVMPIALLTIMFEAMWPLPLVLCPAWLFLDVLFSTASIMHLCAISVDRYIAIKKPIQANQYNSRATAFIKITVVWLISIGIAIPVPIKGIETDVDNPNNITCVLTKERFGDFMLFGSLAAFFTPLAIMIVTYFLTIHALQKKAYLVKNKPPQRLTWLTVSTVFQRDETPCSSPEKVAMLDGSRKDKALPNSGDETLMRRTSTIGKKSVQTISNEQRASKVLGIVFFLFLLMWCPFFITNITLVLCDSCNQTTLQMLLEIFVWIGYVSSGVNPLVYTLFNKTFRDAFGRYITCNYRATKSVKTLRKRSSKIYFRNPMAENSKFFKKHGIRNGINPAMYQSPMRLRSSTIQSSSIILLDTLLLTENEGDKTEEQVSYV", "assay": "GPCRScan assay: inhibition of 5-HT2B", "set-up": "radioligand conc. used [nm] 1.0 – 2.0, parental cells stable HEK"}, "[7]": {"molecular_target": "Dual specificity testis-specific protein kinase 1 (Homo sapiens) (UniProt Q15569)", "conditions": "Compound concentration 1000.0 nM"}, "[8]": {"molecular_target": "T2, Protein kinase C epsilon type (Homo sapiens) (UniProt Q02156)", "T2 sequence (whole entry)": "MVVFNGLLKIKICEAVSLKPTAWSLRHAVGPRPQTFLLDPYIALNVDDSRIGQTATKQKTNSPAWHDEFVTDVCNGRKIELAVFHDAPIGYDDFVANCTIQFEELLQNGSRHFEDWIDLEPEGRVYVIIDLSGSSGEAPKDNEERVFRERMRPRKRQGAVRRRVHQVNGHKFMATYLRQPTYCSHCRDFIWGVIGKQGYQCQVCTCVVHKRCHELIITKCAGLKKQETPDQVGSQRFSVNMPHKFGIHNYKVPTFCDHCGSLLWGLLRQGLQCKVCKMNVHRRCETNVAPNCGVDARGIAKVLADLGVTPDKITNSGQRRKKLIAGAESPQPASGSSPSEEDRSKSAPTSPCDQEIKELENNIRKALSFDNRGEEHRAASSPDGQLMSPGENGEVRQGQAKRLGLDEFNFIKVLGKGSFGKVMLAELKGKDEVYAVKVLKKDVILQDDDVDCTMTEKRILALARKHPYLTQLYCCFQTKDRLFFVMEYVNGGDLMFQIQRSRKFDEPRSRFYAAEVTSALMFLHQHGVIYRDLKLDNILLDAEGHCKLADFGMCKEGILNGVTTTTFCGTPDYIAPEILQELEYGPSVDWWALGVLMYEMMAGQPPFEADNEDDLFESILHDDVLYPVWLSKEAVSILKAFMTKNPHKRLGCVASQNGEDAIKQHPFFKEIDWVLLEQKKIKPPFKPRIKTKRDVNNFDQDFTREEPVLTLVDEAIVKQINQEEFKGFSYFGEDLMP", "conditions": "Compound concentration 1000.0 nM"}, "[9]": {"molecular_target": "cGMP-dependent protein kinase 1 (Homo sapiens) (UniProt Q13976)", "sequence (Q13976 whole entry)": "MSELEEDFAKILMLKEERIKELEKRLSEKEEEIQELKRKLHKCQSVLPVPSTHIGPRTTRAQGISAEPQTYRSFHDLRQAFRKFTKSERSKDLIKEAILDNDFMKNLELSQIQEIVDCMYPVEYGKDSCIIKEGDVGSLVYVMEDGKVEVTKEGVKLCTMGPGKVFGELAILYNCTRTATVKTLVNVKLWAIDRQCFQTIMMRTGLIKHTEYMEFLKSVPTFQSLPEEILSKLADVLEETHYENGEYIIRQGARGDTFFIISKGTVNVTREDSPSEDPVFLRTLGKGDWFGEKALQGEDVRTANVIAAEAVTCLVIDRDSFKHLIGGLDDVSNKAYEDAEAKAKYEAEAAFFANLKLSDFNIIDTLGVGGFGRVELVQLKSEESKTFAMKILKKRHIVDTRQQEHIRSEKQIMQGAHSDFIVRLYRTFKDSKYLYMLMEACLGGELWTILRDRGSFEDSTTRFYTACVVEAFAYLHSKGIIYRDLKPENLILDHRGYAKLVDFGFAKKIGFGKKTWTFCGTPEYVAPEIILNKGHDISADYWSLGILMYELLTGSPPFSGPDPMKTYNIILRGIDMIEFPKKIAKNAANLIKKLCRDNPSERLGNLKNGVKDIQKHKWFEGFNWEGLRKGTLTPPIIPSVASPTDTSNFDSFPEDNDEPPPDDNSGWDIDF", "conditions": "Compound concentration 1000.0 nM"}, "[10]": {"molecular_target": "Mitogen-activated protein kinase 1 (Homo sapiens) (UniProt P28482)", "conditions": "Compound concentration 1000.0 nM"}, "[11]": {"molecular_target": "Maternal embryonic leucine zipper kinase (Homo sapiens) (UniProt Q14680)", "conditions": "Compound concentration 1000.0 nM"}, "[12]": {"molecular_target": "Mitogen-activated protein kinase 9 (Homo sapiens) (UniProt P45984)", "conditions": "Compound concentration 1000.0 nM"}, "[13]": {"molecular_target": "Phosphorylase b kinase gamma catalytic chain, skeletal muscle/heart isoform (Homo sapiens) (UniProt Q16816)", "sequence (Q16816 whole entry, looked up, canonical isoform)": "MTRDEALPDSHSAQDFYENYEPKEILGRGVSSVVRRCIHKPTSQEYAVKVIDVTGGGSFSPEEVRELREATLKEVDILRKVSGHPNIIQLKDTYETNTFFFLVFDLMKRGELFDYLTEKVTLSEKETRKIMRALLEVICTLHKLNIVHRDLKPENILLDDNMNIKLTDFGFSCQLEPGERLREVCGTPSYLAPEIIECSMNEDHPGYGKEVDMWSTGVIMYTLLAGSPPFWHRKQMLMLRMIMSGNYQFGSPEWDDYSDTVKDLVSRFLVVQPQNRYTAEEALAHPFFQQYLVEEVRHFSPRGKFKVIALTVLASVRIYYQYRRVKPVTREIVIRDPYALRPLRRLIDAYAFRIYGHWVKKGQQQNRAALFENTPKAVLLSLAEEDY", "conditions": "Compound concentration 1000.0 nM"}, "[14]": {"molecular_target": "Tyrosine-protein kinase FRK (Homo sapiens) (UniProt P42685)", "conditions": "Compound concentration 1000.0 nM"}, "[15]": {"molecular_target": "Ephrin type-A receptor 6 (Homo sapiens) (UniProt Q9UF33)", "conditions": "Compound concentration 1000.0 nM"}, "[16]": {"molecular_target": "Serine/threonine-protein kinase 38-like (Homo sapiens) (UniProt Q9Y2H1)", "conditions": "Compound concentration 1000.0 nM"}, "[17]": {"molecular_target": "SNF-related serine/threonine-protein kinase (Homo sapiens) (UniProt Q9NRH2)", "conditions": "Compound concentration 1000.0 nM"}, "[18]": {"molecular_target": "Bone morphogenetic protein receptor type-1A (Homo sapiens) (UniProt P36894)", "conditions": "Compound concentration 1000.0 nM"}, "[19]": {"molecular_target": "Discoidin domain-containing receptor 2 (Homo sapiens) (UniProt Q16832)", "sequence (Q16832 whole entry, the tested form may be a part)": "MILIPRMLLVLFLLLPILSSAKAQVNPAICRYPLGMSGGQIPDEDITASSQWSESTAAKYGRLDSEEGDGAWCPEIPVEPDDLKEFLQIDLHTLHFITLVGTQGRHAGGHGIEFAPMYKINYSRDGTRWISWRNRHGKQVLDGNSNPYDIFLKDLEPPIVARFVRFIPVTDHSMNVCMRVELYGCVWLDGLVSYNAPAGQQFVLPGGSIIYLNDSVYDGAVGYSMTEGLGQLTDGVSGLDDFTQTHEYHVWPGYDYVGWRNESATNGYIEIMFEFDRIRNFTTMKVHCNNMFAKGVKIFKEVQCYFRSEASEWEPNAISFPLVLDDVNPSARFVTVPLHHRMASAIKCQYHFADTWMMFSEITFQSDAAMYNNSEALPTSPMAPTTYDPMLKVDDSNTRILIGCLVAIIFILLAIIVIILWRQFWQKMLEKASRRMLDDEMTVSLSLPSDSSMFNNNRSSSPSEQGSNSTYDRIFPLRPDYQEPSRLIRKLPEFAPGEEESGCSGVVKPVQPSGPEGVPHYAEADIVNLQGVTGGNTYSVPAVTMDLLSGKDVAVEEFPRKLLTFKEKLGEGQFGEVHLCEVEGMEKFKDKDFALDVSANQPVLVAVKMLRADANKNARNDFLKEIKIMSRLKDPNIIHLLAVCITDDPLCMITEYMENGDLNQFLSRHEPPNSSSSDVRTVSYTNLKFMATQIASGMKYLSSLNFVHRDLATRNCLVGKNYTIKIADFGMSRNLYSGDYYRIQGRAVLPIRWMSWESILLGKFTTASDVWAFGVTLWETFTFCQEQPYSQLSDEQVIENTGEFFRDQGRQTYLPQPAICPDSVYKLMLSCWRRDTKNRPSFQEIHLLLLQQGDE", "conditions": "Compound concentration 1000.0 nM"}, "[20]": {"test_system": "eIF-2-alpha kinase GCN2 (Homo sapiens), Q9P2K8 [S808G]", "conditions": "Compound concentration 1000.0 nM"}, "[21]": {"molecular_target": "Tyrosine-protein kinase SYK (Homo sapiens) (UniProt P43405)", "conditions": "Compound concentration 1000.0 nM"}, "[22]": {"molecular_target": "Serine/threonine-protein kinase 4 (Homo sapiens) (UniProt Q13043)", "conditions": "Compound concentration 1000.0 nM"}, "[23]": {"molecular_target": "Serine/threonine-protein kinase 32A (Homo sapiens) (UniProt Q8WU08)", "conditions": "Compound concentration 1000.0 nM"}, "[24]": {"molecular_target": "Calcium/calmodulin-dependent protein kinase type II subunit alpha (Homo sapiens) (UniProt Q9UQM7)", "conditions": "Compound concentration 1000.0 nM"}, "[25]": {"test_system": "Tyrosine-protein kinase ABL1 (Homo sapiens), P00519 [M351T]", "conditions": "Compound concentration 1000.0 nM"}, "[26]": {"test_system": "Proto-oncogene tyrosine-protein kinase receptor Ret (Homo sapiens), P07949 [V804M]", "sequence (P07949 whole entry V804M)": "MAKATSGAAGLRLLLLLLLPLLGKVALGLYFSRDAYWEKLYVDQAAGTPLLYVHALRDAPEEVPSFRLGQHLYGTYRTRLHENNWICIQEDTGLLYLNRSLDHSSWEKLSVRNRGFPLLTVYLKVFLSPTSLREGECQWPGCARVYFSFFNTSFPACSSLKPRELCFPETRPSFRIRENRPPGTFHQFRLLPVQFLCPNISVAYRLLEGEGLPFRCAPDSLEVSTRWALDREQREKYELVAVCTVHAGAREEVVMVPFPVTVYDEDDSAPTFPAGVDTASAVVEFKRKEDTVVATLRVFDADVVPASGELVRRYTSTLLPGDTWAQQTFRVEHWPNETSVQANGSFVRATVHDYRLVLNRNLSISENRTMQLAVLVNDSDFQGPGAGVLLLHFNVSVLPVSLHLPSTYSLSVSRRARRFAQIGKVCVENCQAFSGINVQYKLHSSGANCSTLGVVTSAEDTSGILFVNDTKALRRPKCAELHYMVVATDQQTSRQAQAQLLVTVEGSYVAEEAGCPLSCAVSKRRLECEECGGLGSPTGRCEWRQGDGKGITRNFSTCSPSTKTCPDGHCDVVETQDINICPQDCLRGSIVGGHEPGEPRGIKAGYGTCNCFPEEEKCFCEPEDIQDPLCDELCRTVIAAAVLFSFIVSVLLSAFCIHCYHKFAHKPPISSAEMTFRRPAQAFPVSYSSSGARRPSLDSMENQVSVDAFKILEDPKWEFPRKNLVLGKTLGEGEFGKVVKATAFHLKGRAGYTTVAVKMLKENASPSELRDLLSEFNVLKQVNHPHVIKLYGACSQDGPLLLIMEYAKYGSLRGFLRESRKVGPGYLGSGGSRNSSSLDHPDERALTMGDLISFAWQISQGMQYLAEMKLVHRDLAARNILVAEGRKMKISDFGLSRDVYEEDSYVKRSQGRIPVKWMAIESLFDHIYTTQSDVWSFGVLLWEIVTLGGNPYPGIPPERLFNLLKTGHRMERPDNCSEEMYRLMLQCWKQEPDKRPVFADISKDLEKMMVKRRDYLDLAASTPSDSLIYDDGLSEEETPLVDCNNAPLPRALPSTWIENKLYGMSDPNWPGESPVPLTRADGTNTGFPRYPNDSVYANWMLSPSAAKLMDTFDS", "conditions": "Compound concentration 1000.0 nM"}, "[27]": {"molecular_target": "Serine/threonine-protein kinase Nek10 (Homo sapiens) (UniProt Q6ZWH5)", "conditions": "Compound concentration 1000.0 nM"}, "[28]": {"molecular_target": "Serine/threonine-protein kinase OSR1 (Homo sapiens) (UniProt O95747)", "conditions": "Compound concentration 1000.0 nM"}, "[29]": {"molecular_target": "Death-associated protein kinase 1 (Homo sapiens) (UniProt P53355)", "conditions": "Compound concentration 1000.0 nM"}}, "note": "pKi: −log10 of the molar value.", "data": [{"smiles": "CNCc1ccccc1-c1csc([C@H](C)Nc2nc(C)nc3cc(OC)c(OC)cc23)c1", "note": "[BAY-294]", "values": [{"measurement": "residual activity", "setting": "[1]", "result": 100, "unit": "%"}, {"measurement": "residual activity", "setting": "[2]", "result": 100, "unit": "%"}, {"measurement": "residual activity", "setting": "[3]", "result": 93, "unit": "%"}, {"measurement": "pKi", "setting": "[4]", "result": 6.50}, {"measurement": "Ki", "setting": "[4]", "result": 0.224, "unit": "µM"}, {"measurement": "residual activity", "setting": "[5]", "result": 100, "unit": "%"}, {"measurement": "pKi", "setting": "[6]", "result": 7.13}, {"measurement": "residual activity", "setting": "[7]", "result": 100, "unit": "%"}, {"measurement": "residual activity", "setting": "[8]", "result": 78, "unit": "%"}, {"measurement": "residual activity", "setting": "[9]", "result": 100, "unit": "%"}, {"measurement": "residual activity", "setting": "[10]", "result": 100, "unit": "%"}, {"measurement": "residual activity", "setting": "[11]", "result": 74, "unit": "%"}, {"measurement": "residual activity", "setting": "[12]", "result": 71, "unit": "%"}, {"measurement": "residual activity", "setting": "[13]", "result": 87, "unit": "%"}, {"measurement": "residual activity", "setting": "[14]", "result": 100, "unit": "%"}, {"measurement": "residual activity", "setting": "[15]", "result": 100, "unit": "%"}, {"measurement": "residual activity", "setting": "[16]", "result": 94, "unit": "%"}, {"measurement": "residual activity", "setting": "[17]", "result": 93, "unit": "%"}, {"measurement": "residual activity", "setting": "[18]", "result": 100, "unit": "%"}, {"measurement": "residual activity", "setting": "[19]", "result": 94, "unit": "%"}, {"measurement": "residual activity", "setting": "[20]", "result": 100, "unit": "%"}, {"measurement": "residual activity", "setting": "[21]", "result": 100, "unit": "%"}, {"measurement": "residual activity", "setting": "[22]", "result": 100, "unit": "%"}, {"measurement": "residual activity", "setting": "[23]", "result": 91, "unit": "%"}, {"measurement": "residual activity", "setting": "[24]", "result": 100, "unit": "%"}, {"measurement": "residual activity", "setting": "[25]", "result": 85, "unit": "%"}, {"measurement": "residual activity", "setting": "[26]", "result": 100, "unit": "%"}, {"measurement": "residual activity", "setting": "[27]", "result": 78, "unit": "%"}, {"measurement": "residual activity", "setting": "[28]", "result": 78, "unit": "%"}, {"measurement": "residual activity", "setting": "[29]", "result": 100, "unit": "%"}]}, {"smiles": "CNCc1ccccc1-c1csc([C@@H](C)Nc2nc(C)nc3cc(OC)c(OC)cc23)c1", "note": "[BAY-293]", "values": [{"measurement": "residual activity", "setting": "[1]", "result": 99, "unit": "%"}, {"measurement": "residual activity", "setting": "[2]", "result": 100, "unit": "%"}, {"measurement": "residual activity", "setting": "[3]", "result": 99, "unit": "%"}, {"measurement": "pKi", "setting": "[4]", "result": 6.62}, {"measurement": "Ki", "setting": "[4]", "result": 0.209, "unit": "µM"}, {"measurement": "residual activity", "setting": "[5]", "result": 96, "unit": "%"}, {"measurement": "pKi", "setting": "[6]", "result": 6.21}, {"measurement": "residual activity", "setting": "[7]", "result": 83, "unit": "%"}, {"measurement": "residual activity", "setting": "[8]", "result": 74, "unit": "%"}, {"measurement": "residual activity", "setting": "[9]", "result": 100, "unit": "%"}, {"measurement": "residual activity", "setting": "[10]", "result": 78, "unit": "%"}, {"measurement": "residual activity", "setting": "[11]", "result": 53, "unit": "%"}, {"measurement": "residual activity", "setting": "[12]", "result": 71, "unit": "%"}, {"measurement": "residual activity", "setting": "[13]", "result": 83, "unit": "%"}, {"measurement": "residual activity", "setting": "[14]", "result": 100, "unit": "%"}, {"measurement": "residual activity", "setting": "[15]", "result": 96, "unit": "%"}, {"measurement": "residual activity", "setting": "[16]", "result": 86, "unit": "%"}, {"measurement": "residual activity", "setting": "[17]", "result": 78, "unit": "%"}, {"measurement": "residual activity", "setting": "[18]", "result": 91, "unit": "%"}, {"measurement": "residual activity", "setting": "[19]", "result": 92, "unit": "%"}, {"measurement": "residual activity", "setting": "[20]", "result": 99, "unit": "%"}, {"measurement": "residual activity", "setting": "[21]", "result": 100, "unit": "%"}, {"measurement": "residual activity", "setting": "[22]", "result": 100, "unit": "%"}, {"measurement": "residual activity", "setting": "[23]", "result": 76, "unit": "%"}, {"measurement": "residual activity", "setting": "[24]", "result": 99, "unit": "%"}, {"measurement": "residual activity", "setting": "[25]", "result": 74, "unit": "%"}, {"measurement": "residual activity", "setting": "[26]", "result": 90, "unit": "%"}, {"measurement": "residual activity", "setting": "[27]", "result": 73, "unit": "%"}, {"measurement": "residual activity", "setting": "[28]", "result": 67, "unit": "%"}, {"measurement": "residual activity", "setting": "[29]", "result": 99, "unit": "%"}]}]}
